From PubChem BioAssay (NCI)
“And” between values parts separate entries of the source, which are not always exact repeats. Equal entries are not always repeated.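 Assay format: 96-well plates, 48-hour exposure. At the GI50, growth is halved. TGI marks complete inhibition of growth.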

Assays:
Experiment in all cases: inhibition of tumour cell growth, NCI panel, 48 h
SNB-78 CNS = test system: SNB-78 CNS
UACC-62 melanoma = test system: UACC-62 melanoma
DMS 114 small cell lung = test system: DMS 114 small cell lung
UO-31 renal = test system: UO-31 renal
KM20L2 colon = test system: KM20L2 colon
OVCAR-8 ovarian = test system: OVCAR-8 ovarian
DLD-1 colon = test system: DLD-1 colon
MDA-MB-435 = test system: MDA-MB-435
NCI/ADR-RES ovarian = test system: NCI/ADR-RES ovarian
MDA-MB-231 breast = test system: MDA-MB-231 breast

SMILES	TGI (SNB-78 CNS)	TGI (UACC-62 melanoma)	TGI (DMS 114 small cell lung)	TGI (UO-31 renal)	TGI (KM20L2 colon)	TGI (OVCAR-8 ovarian)	TGI (DLD-1 colon)	GI50 (MDA-MB-435) [µM]	TGI (MDA-MB-435) [µM]	GI50 (UACC-62 melanoma)	GI50 (NCI/ADR-RES ovarian) [µM]	TGI (NCI/ADR-RES ovarian) [µM]	GI50 (MDA-MB-231 breast) [µM]	TGI (MDA-MB-231 breast) [µM]	GI50 (UO-31 renal) [µM]	GI50 (SNB-78 CNS)	GI50 (KM20L2 colon) [µM]	GI50 (OVCAR-8 ovarian)	GI50 (DLD-1 colon) [µM]	GI50 (DMS 114 small cell lung) [µM]
CC(O)c1ccc(C(O)/C(=N\NC(=O)c2ccncc2)c2nc3ccc([N+](=O)[O-])cc3[nH]c2=O)cc1 (centres undefined)	> 100 µM	> 100 µM	98.2 µM	> 100 µM	> 100 µM	> 100 µM	> 100 µM													
O=C(CC1(O)C(=O)Nc2ccc([N+](=O)[O-])cc21)c1ccc(Br)cc1 (centres undefined)	> 100 µM	> 100 µM	> 100 µM	> 100 µM	> 100 µM	> 100 µM	> 100 µM													
c1ccc(N2N=NC3C4CC(C5c6ccccc6C45)C32)cc1 (centres undefined)	> 100 µM	> 100 µM	47.5 µM	72.1 µM	> 100 µM	> 100 µM	> 100 µM													
CN(CCCCN)c1ccc2c(=O)[nH][nH]c(=O)c2c1	> 100 µM	> 77 µM	> 100 µM	> 100 µM			> 100 µM													
O=C(NC(Cc1ccccc1)C(=O)CCl)OCc1ccccc1 (centres undefined)	50 µM	17.7 µM and 21.2 µM	4.66 µM	16.4 µM and 25.6 µM	20.2 µM	15 µM and 17.6 µM	21.5 µM	3.59	14.3	4.52 µM	6	53.7	7.02	20.7	3.91					
O=C(O)c1ccccc1C1c2ccc(Cl)cc2Oc2cc(Cl)ccc21		> 100 µM	> 100 µM	> 100 µM	> 100 µM	> 100 µM	> 100 µM													
CCOC(=O)Cn1c(=O)[nH]c(=O)c2[nH]cnc21	> 100 µM	> 100 µM	> 100 µM	> 100 µM	> 100 µM	> 100 µM	> 100 µM													
COC(=O)c1cc2c(nc1C)-c1ccccc1OS2(=O)=O	> 100 µM	> 100 µM	> 100 µM	> 100 µM	> 100 µM	> 100 µM	> 100 µM													
COC1C(C)OC(OC2CC(C)(O)Cc3cc4c(c(O)c32)C(=O)c2c(O)cc3c(c2C4=O)OC2OC3(C)C(O)C(N(C)C)C2O)C(OC)C1(C)OC (centres undefined)	1.78 µM and 2.57 µM		0.0635 µM and 0.0446 µM		0.571 µM and 1.6 µM	2.79 µM and 1.37 µM	5.12 µM and 3.91 µM		0.00306	0.00441 µM and 0.0312 µM		21.2				0.00657 µM and 0.0327 µM	0.0651	0.0416 µM and 0.0176 µM	0.183	
c1cnc2nc3n(c2c1)CSC3	> 100 µM	> 100 µM	> 100 µM	> 100 µM	> 100 µM	> 100 µM	> 100 µM													
CC(C)=Cc1cc(C(=O)NCCNC(=O)c2cc(C=C(C)C)nc(NC#N)n2)nc(NC#N)n1		> 100 µM	> 100 µM	> 100 µM	> 100 µM	> 100 µM														
[Au+].c1c[n-]cn1.c1ccc([PH+](c2ccccc2)c2ccccc2)cc1	> 45.2 µM	29.2 µM	1.91 µM	19.4 µM	58.3 µM	37.1 µM		5.17	23.1	5.17 µM	32.9	> 100			8.36	7.57 µM	21.9	9.28 µM		0.668
Cc1cc(Cl)ccc1Nc1nc2c(s1)C(=O)c1ccccc1C2=O	> 80.9 µM	7.41 µM	4.85 µM	11.6 µM	39.4 µM	11.6 µM	12.5 µM							12.9						
Cc1ccc(S(=O)(=O)OC2CSSCC2OS(=O)(=O)c2ccc(C)cc2)cc1 (centres undefined)	37 µM	24.6 µM	26.4 µM	28.5 µM	30.4 µM	26.1 µM	24.7 µM													
C1=CC(=NN=P(c2ccccc2)(c2ccccc2)c2ccccc2)C=C1		> 100 µM	> 100 µM	> 100 µM	> 100 µM	> 100 µM	> 100 µM													
O=[P+](O)c1cccnc1	> 100 µM	> 100 µM	> 100 µM	> 100 µM	> 100 µM	> 100 µM	> 100 µM													
